According to patent publication US20240158446A1, “CYCLIC COMPOUND HAVING SELECTIVE INHIBITORY ACTION ON KRAS OVER HRAS AND NRAS” (CHUGAI SEIYAKU KABUSHIKI KAISHA, priority 2021, published 2024):
Where two headings read alike, the source gives them in different places. Where a SMILES comes first, the peptide text is derived from it. Bridges are numbered along the chain shown (N, C = ends). [ ]: non-standard residue; d: D form. The star is where a group is joined. hPhe(3-Cl-4-CF3) = N[C@@H](CCc1ccc(C(F)(F)F)c(Cl)c1)C(=O)O; NPrPhe(4-CF3) = CCCN[C@@H](Cc1ccc(C(F)(F)F)cc1)C(=O)O; NMeGly(cPent) = CN[C@H](C(=O)O)C1CCCC1; Gly(cBu) = N[C@H](C(=O)O)C1CCC1; NMeD = CN[C@@H](CC(=O)O)C(=O)O; NMeL = CN[C@@H](CC(C)C)C(=O)O; Morpholide = C1CN(*)CCO1; Piperidide = C1CCN(*)CC1; Ac5c = NC1(C(=O)O)CCCC1; Sar = CNCC(=O)O

Columns and labels:
[1] = test system: human lung cancer strain NCI-H441;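 note: cell proliferation inhibition after four days measured by CellTiter-Glo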
[2] = biological target: GDP-bound NRAS wild-type protein (Homo sapiens, UniProt P01111); assay: Binding to NRAS by surface plasmon resonance (SPR), Single Cycle Kinetics; conditions: for NRAS/KRAS (ratio of KD value for NRAS to KD value for KRAS): SPR, GDP-bound NRAS wild-type protein vs GDP-bound KRAS wild-type protein
[3] = biological target: GDP-bound KRAS wild-type protein (Homo sapiens, UniProt P01116); assay: Binding to KRAS by surface plasmon resonance (SPR), Single Cycle Kinetics; conditions: GDP-bound KRAS wild-type protein, read-out: KRAS KD
[4] = biological target: GDP-bound HRAS wild-type protein (Homo sapiens, UniProt P01112); assay: Binding to HRAS by surface plasmon resonance (SPR), Single Cycle Kinetics; conditions: for HRAS/KRAS (ratio of KD value for HRAS to KD value for KRAS): SPR, GDP-bound HRAS wild-type protein vs GDP-bound KRAS wild-type protein
[5] = read-out: NCI-H441 IC50, NCI-H441 cells, four days, CellTiter-Glo
[6] = SPR, Single Cycle Kinetics, 1:1 binding model
[7] = SPR Single Cycle Kinetics, 1:1 binding model

Sequence of GDP-bound HRAS wild-type protein (P01112 whole entry): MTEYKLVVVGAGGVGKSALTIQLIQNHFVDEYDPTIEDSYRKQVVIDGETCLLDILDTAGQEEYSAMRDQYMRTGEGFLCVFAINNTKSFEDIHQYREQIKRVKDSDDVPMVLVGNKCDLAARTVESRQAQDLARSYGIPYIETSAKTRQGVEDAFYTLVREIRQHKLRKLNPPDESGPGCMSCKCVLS
Sequence of GDP-bound NRAS wild-type protein (P01111 whole entry): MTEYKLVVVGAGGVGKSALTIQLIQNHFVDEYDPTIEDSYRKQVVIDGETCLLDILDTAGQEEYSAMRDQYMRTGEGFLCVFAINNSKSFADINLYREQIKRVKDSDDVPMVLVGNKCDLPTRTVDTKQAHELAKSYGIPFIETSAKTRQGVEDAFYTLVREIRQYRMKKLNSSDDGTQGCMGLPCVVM
Sequence of GDP-bound KRAS wild-type protein (P01116 whole entry): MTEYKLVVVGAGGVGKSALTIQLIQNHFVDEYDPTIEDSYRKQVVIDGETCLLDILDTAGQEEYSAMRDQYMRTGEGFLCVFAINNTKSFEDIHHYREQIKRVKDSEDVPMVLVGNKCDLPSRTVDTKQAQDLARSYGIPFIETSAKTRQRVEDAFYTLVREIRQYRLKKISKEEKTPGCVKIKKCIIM

## CCOC1CC2C(=O)NC3(CCC3)C(=O)N(C)C(C(C)CC)C(=O)N(C)[C@H](C(=O)N3CCOCC3)CC(=O)N(C)[C@@H](CC(C)C)C(=O)N[C@@H]([C@@H](C)CC)C(=O)N(C)CC(=O)N(C)[C@H]3CCCCN(C3=O)[C@@H](Cc3ccc(C(F)(F)F)cc3)C(=O)N(C)CC(=O)N[C@@H](CCc3cc(F)c(C(F)(F)F)c(F)c3)C(=O)N2C1 (some centres unmarked) [PP0812]
[1]
  IC50: 17.9 nM

## CCO[C@@H]1C[C@H]2C(=O)NC3(CCC3)C(=O)N(C)[C@@H](C3CCCC3)C(=O)N(C)[C@H](C(=O)N3CCCCC3)CC(=O)N(C)[C@H]3CCC/C=C/c4ccc(cc4)C[C@@H](C(=O)N(C)CC(=O)N[C@@H](CCc4ccc(Cl)c(Cl)c4)C(=O)N2C1)N1CC/C=C\C[C@@H](C1=O)N(C)C(=O)CN(C1CC1)C(=O)[C@H]([C@@H](C)CC)NC3=O [PP2958]
[1]; [5]
  IC50: 19.5 nM

## CCO[C@@H]1C[C@H]2C(=O)NC3(CCC3)C(=O)N(C)[C@@H](C(CC)CC)C(=O)N(C)[C@H](C(=O)N3CCCCC3)CC(=O)N(C)[C@H]3CCC/C=C/c4ccc(cc4)C[C@@H](C(=O)N(C)CC(=O)N[C@@H](CCc4ccc(Cl)c(Cl)c4)C(=O)N2C1)N1CC/C=C\C[C@@H](C1=O)N(C)C(=O)CN(C1CC1)C(=O)[C@H]([C@@H](C)CC)NC3=O [PP3039]
[1]; [5]
  IC50: 18 nM

## CCO[C@@H]1C[C@H]2C(=O)NC3(CC(C)(C)C3)C(=O)N(C)[C@@H](C(CC)CC)C(=O)N(C)C(CC)CC(=O)N(C)[C@@H](CC)C(=O)N[C@@H]([C@@H](C)CC)C(=O)N(C)CC(=O)N(C)[C@H]3C/C=C\CCN(C3=O)[C@@H](Cc3ccc(C(F)(F)F)cc3)C(=O)N(C)CC(=O)N[C@@H](CCc3cc(F)c(C(F)(F)F)c(F)c3)C(=O)N2C1 (some centres unmarked) [PP1622]
[1]; read-out: NCI-H441 IC50, NCI-H441 cell proliferation, 4 days, CellTiter-Glo
  IC50: 28.1 nM

## CCCN1C(=O)CN(C)C(=O)CN(C)C(=O)[C@H]([C@@H](C)CC)NC(=O)[C@H](CC(C)C)N(C)C(=O)C[C@@H](C(=O)N2CCCCC2)N(C)C(=O)[C@H](C2CCCC2)N(C)C(=O)C2(CCCC2)NC(=O)[C@@H]2CCCN2C(=O)[C@H](CCc2ccc(C(F)(F)F)c(Cl)c2)NC(=O)CN(C)C(=O)[C@@H]1Cc1ccc(C(F)(F)F)cc1 [PP0171] ([NMeL]I[Sar][Sar][NPrPhe(4-CF3)][Sar][hPhe(3-Cl-4-CF3)]P[Ac5c][NMeGly(cPent)][NMeD]-Piperidide; lactam N-11)
[1]; [5]
  IC50: 6.9 nM

## CCO[C@@H]1C[C@H]2C(=O)NC3(CCC3)C(=O)N(C)[C@@H](C(CC)CC)C(=O)N(C)[C@H](C(=O)N(C)C)CC(=O)N(C)[C@@H](CC(C)C)C(=O)N[C@@H]([C@@H](C)CC)C(=O)N(C)CC(=O)N(C)[C@H]3C/C=C\CCN(C3=O)[C@@H](Cc3ccc(F)cc3C)C(=O)N(C)CC(=O)N[C@@H](CCc3cc(F)c(C(F)(F)F)c(F)c3)C(=O)N2C1 [PP1518]
[2]; KD ratio class
  NRAS/KRAS (ratio of KD value for NRAS to KD value for KRAS): A (a compound having 10 or more and less than 20 is denoted as A)
[3]; [6]
  Kd: 0.58 nM
[4]; KD ratio class
  HRAS/KRAS (ratio of KD value for HRAS to KD value for KRAS): B (a compound having 3 or more and less than 10 is denoted as B)

## CCCN1C(=O)CN(C)C(=O)CN(C)C(=O)[C@H](C2CCC2)NC(=O)[C@H](CC(C)C)N(C)C(=O)C[C@@H](C(=O)N2CCOCC2)N(C)C(=O)[C@H](C2CCCC2)N(C)C(=O)C2(CCCC2)NC(=O)[C@@H]2CCCN2C(=O)[C@H](CCc2ccc(C(F)(F)F)c(Cl)c2)NC(=O)CN(C)C(=O)[C@@H]1Cc1ccc(C(F)(F)F)cc1 [PP0250] ([NMeL][Gly(cBu)][Sar][Sar][NPrPhe(4-CF3)][Sar][hPhe(3-Cl-4-CF3)]P[Ac5c][NMeGly(cPent)][NMeD]-Morpholide; lactam N-11)
[2]
  NRAS/KRAS (ratio of KD value for NRAS to KD value for KRAS): B (a compound having 3 or more and less than 10 is denoted as B)
[3]; [7]
  Kd: 0.12 nM
[4]
  HRAS/KRAS (ratio of KD value for HRAS to KD value for KRAS): C (A compound having a KD ratio of 0.1 or more and less than 3 is denoted as C)

## CCO[C@@H]1C[C@H]2C(=O)NC3(CCC3)C(=O)N(C)[C@@H](C3CCCC3)C(=O)N(C)[C@H](C(=O)N(C)C)CC(=O)N(C)[C@@H](COC)C(=O)N[C@@H]([C@@H](C)CC)C(=O)N3CC[C@H]3C(=O)N(C)[C@H]3CCCCCN(C3=O)[C@@H](Cc3ccc(C(F)(F)F)cc3)C(=O)N(C)CC(=O)N[C@@H](CCc3cc(F)c(C(F)(F)F)c(F)c3)C(=O)N2C1 [PP0864]
[2]
  NRAS/KRAS (ratio of KD value for NRAS to KD value for KRAS): B (a compound having 3 or more and less than 10 is denoted as B)
[3]; SPR, Single Cycle Kinetics
  Kd: 0.49 nM
[4]
  HRAS/KRAS (ratio of KD value for HRAS to KD value for KRAS): B (a compound having 3 or more and less than 10 is denoted as B)

## CCO[C@@H]1C[C@H]2C(=O)NC3(CC(C)(C)C3)C(=O)N(C)[C@@H](C(CC)CC)C(=O)N(C)[C@H](C(=O)N(C)C)CC(=O)N(C)[C@@H](CC3CCC3)C(=O)N[C@@H]([C@@H](C)CC)C(=O)N(C)CC(=O)N(C)[C@H]3C/C=C\CCN(C3=O)[C@@H](Cc3ccc(C(F)(F)F)cc3)C(=O)N(C)CC(=O)N[C@@H](CCc3ccc(C(F)(F)F)c(Cl)c3)C(=O)N2C1 [PP2138]
[2]
  NRAS/KRAS (ratio of KD value for NRAS to KD value for KRAS): A (a compound having 10 or more and less than 20 is denoted as A)
[3]; SPR, Single Cycle Kinetics
  Kd: 0.44 nM
[4]
  HRAS/KRAS (ratio of KD value for HRAS to KD value for KRAS): A (a compound having 10 or more and less than 20 is denoted as A)

## CCC[C@H]1C(=O)N[C@@H]([C@@H](C)CC)C(=O)N(C)CC(=O)N(C)[C@H]2C/C=C\CCN(C2=O)[C@@H](Cc2ccc(C(F)(F)F)cc2)C(=O)N(C)CC(=O)N[C@@H](CCc2ccc(Cl)c(C(F)(F)F)c2)C(=O)N2C[C@H](OCC)C[C@H]2C(=O)NC2(CC(C)(C)C2)C(=O)N(C)[C@@H](C(CC)CC)C(=O)N(C)[C@H](C(=O)N(C)C)CC(=O)N1C [PP2785]
[2]; SPR KD ratio NRAS/KRAS, class symbols
  NRAS/KRAS (ratio of KD value with respect to GDP-bound NRAS wild-type protein to KD value with respect to KRAS): AA (a compound having 20 or more is denoted as AA)
[3]; [7]
  Kd: 0.26 nM
[4]; SPR KD ratio HRAS/KRAS, class symbols
  HRAS/KRAS (ratio of KD value with respect to GDP-bound HRAS wild-type protein to KD value with respect to KRAS): A (a compound having 10 or more and less than 20 is denoted as A)

## CCO[C@@H]1C[C@H]2C(=O)NC3(CCC3)C(=O)N(C)[C@@H](C3CCCC3)C(=O)N(C)[C@H](C(=O)N(C)C)CC(=O)N(C)[C@H]3CCCCCCc4ccc(cc4)C[C@@H](C(=O)N(C)CC(=O)N[C@@H](CCc4ccc(C(F)(F)F)c(OC)c4)C(=O)N2C1)N1CC/C=C\C[C@@H](C1=O)N(C)C(=O)CN(C)C(=O)[C@H]([C@@H](C)CC)NC3=O [PP2264]
[2]
  NRAS/KRAS (ratio of KD value for NRAS to KD value for KRAS): AA (a compound having 20 or more is denoted as AA)
[3]; SPR, Single Cycle Kinetics
  Kd: 0.11 nM
[4]
  HRAS/KRAS (ratio of KD value for HRAS to KD value for KRAS): A (a compound having 10 or more and less than 20 is denoted as A)

## CCO[C@@H]1C[C@H]2C(=O)NC3(CC(C)(C)C3)C(=O)N(C)[C@@H](C3CCCC3)C(=O)N3CCC[C@@H]3CC(=O)N(C)[C@@H](CC)C(=O)N[C@@H]([C@@H](C)CC)C(=O)N(C)CC(=O)N(C)[C@H]3C/C=C\CCN(C3=O)[C@@H](Cc3ccc(C(F)(F)F)cc3)C(=O)N(C)CC(=O)N[C@@H](CCc3cc(F)c(C(F)(F)F)c(F)c3)C(=O)N2C1 [PP1606]
[2]; KD ratio class
  NRAS/KRAS (ratio of KD value for NRAS to KD value for KRAS): B (a compound having 3 or more and less than 10 is denoted as B)
[3]; [6]
  Kd: 0.37 nM
[4]; KD ratio class
  HRAS/KRAS (ratio of KD value for HRAS to KD value for KRAS): B (a compound having 3 or more and less than 10 is denoted as B)

## CCO[C@@H]1C[C@H]2C(=O)NC3(CCC3)C(=O)N(C)[C@@H](C3CCCC3)C(=O)N(C)[C@H](C(=O)N(C)CCOC)CC(=O)N(C)[C@@H](CC(C)C)C(=O)N[C@@H]([C@@H](C)CC)C(=O)N(C)CC(=O)N(C)[C@H]3C/C=C\CCN(C3=O)[C@@H](Cc3ccc(C(F)(F)F)cc3)C(=O)N(C)CC(=O)N[C@@H](CCc3cc(F)c(C(F)(F)F)c(F)c3)C(=O)N2C1 [PP1317]
[2]; KD ratio class
  NRAS/KRAS (ratio of KD value for NRAS to KD value for KRAS): A (a compound having 10 or more and less than 20 is denoted as A)
[3]; [6]
  Kd: 0.094 nM
[4]; KD ratio class
  HRAS/KRAS (ratio of KD value for HRAS to KD value for KRAS): B (a compound having 3 or more and less than 10 is denoted as B)
